From ChEMBL document CHEMBL1201862, “PubChem BioAssay data set” (2004)
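A five-concentration, 48-hour dose response in 96-well plates underlies each endpoint, interpolated linearly between surrounding concentrations. Abbreviation: GI50, concentration required for 50% inhibition of growth.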 Active and inactive are the calls of the source. Rule as the data show it: active = GI50 up to about 1.1 µM and inactive = higher. Square brackets hold non-standard residues; d marks the D form. Peptide text beside a SMILES is read from it. * marks the point of attachment. ξ: configuration not given here. ξW = NC(Cc1c[nH]c2ccccc12)C(=O)O; X29 = O=C(O)[C@H]1CCC[C@H]1N*; ξF = NC(Cc1ccccc1)C(=O)O; Boc = CC(C)(C)OC(=O)*; ξK = NCCCCC(N)C(=O)O; ξT = CC(O)C(N)C(=O)O; tBu = CC(C)(C)*

Experiments:
Experiment in all cases: NCI tumour cell line growth inhibition, 48 h
[1] = system: SR
[2] = system: OVCAR-3
[3] = system: MDA-MB-231
[4] = system: NCI-H522
[5] = system: M14
[6] = system: HCT-15
[7] = system: SF-539
[8] = system: A498
[9] = system: NCI/ADR-RES
[10] = system: SK-MEL-28
[11] = system: SK-MEL-5
[12] = system: HOP-62
[13] = system: A549
[14] = system: NCI-H23
[15] = system: SNB-19
[16] = system: OVCAR-4
[17] = system: MDA-MB-435
[18] = system: SF-268
[19] = system: IGROV-1
[20] = system: K562

Compound	GI50 [1]	GI50 [2]	GI50 [3]	GI50 [4]	GI50 [5]	GI50 [6] [µM]	GI50 [7]	GI50 [8]	GI50 [9]	GI50 [10]	GI50 [11]	GI50 [12]	GI50 [13]	GI50 [14]	GI50 [15]	GI50 [16]	GI50 [17]	GI50 [18]	GI50 [19]	GI50 [20]
C/C(=N\NC(N)=S)c1sc(-n2nc(-c3ccccc3)cc2-c2ccccc2)nc1C	67.3 µM (inactive)	98.2 µM (inactive)	43.3 µM (inactive)	79.4 µM (inactive)	> 100 µM (inactive)	94.4	> 100 µM (inactive)	> 100 µM (inactive)	67.1 µM (inactive)	> 100 µM (inactive)	76.4 µM (inactive)	> 100 µM (inactive)	> 100 µM (inactive)	> 100 µM (inactive)	> 100 µM (inactive)	74.6 µM (inactive)	> 100 µM (inactive)	> 100 µM (inactive)	16 µM (inactive)	–
C1=C(c2ccccc2)NC2=N[C@H]3CCCC[C@@H]3N2C1c1ccccc1 (some centres undefined)	14.2 µM (inactive)	13.1 µM (inactive)	15.8 µM (inactive)	–	12.9 µM (inactive)	11.4	–	16.4 µM (inactive)	12 µM (inactive)	14.3 µM (inactive)	14.6 µM (inactive)	–	–	12.7 µM (inactive)	14.6 µM (inactive)	10.1 µM (inactive)	13.6 µM (inactive)	21.5 µM (inactive)	13 µM (inactive)	5.15 µM (inactive)
CCN1CC2(C)CCC(OC)C34C5CC6CCC(O)(C5C(=O)O6)C(C(O)C23)C14 (centres undefined)	–	> 100 µM (inactive)	> 100 µM (inactive)	> 100 µM (inactive)	> 100 µM (inactive)	> 100	> 100 µM (inactive)	> 100 µM (inactive)	> 100 µM (inactive)	> 100 µM (inactive)	> 100 µM (inactive)	> 100 µM (inactive)	> 100 µM (inactive)	> 100 µM (inactive)	> 100 µM (inactive)	> 100 µM (inactive)	> 100 µM (inactive)	> 100 µM (inactive)	> 100 µM (inactive)	> 100 µM (inactive)
C[C@@H](CC(O)C(O)C(C)(C)O)C1CCC23CC12CCC1[C@@]2(C)CCC(=O)C(C)(C)C2CC(OC2OC(CO)C(O)C(O)C2O)[C@]13C (some centres undefined)	–	> 10 µM (inactive)	> 10 µM (inactive)	> 10 µM (inactive)	> 10 µM (inactive)	> 10	> 10 µM (inactive)	> 10 µM (inactive)	> 10 µM (inactive)	> 10 µM (inactive)	> 10 µM (inactive)	> 10 µM (inactive)	> 10 µM (inactive)	> 10 µM (inactive)	> 10 µM (inactive)	> 10 µM (inactive)	> 10 µM (inactive)	> 10 µM (inactive)	> 10 µM (inactive)	> 10 µM (inactive)
CCCCCCNc1n[nH]c(=O)c2c1nnn2Cc1ccccc1	> 100 µM (inactive)	> 100 µM (inactive)	> 100 µM (inactive)	–	> 100 µM (inactive)	> 100	–	–	> 100 µM (inactive)	> 100 µM (inactive)	> 100 µM (inactive)	> 100 µM (inactive)	> 100 µM (inactive)	> 100 µM (inactive)	> 100 µM (inactive)	> 100 µM (inactive)	> 100 µM (inactive)	–	–	> 100 µM (inactive)
Cc1cc(C)c2c(c1)CC1(Cc3cc(C)c(C)cc3C1=O)C2=O (centres undefined)	14.7 µM (inactive)	> 100 µM (inactive)	> 100 µM (inactive)	> 100 µM (inactive)	27.7 µM (inactive)	> 100	46.2 µM (inactive)	> 100 µM (inactive)	> 100 µM (inactive)	> 100 µM (inactive)	> 100 µM (inactive)	–	59.4 µM (inactive)	–	> 100 µM (inactive)	77.8 µM (inactive)	3.82 µM (inactive)	> 100 µM (inactive)	90.4 µM (inactive)	> 100 µM (inactive)
COC(=O)/C=C/CCC#Cc1ccccc1C#CCC/C=C/C(=O)OC	3.43 µM (inactive)	3.58 µM (inactive)	20.1 µM (inactive)	3.57 µM (inactive)	8.97 µM (inactive)	3.98	10.5 µM (inactive)	38.5 µM (inactive)	8.28 µM (inactive)	47.5 µM (inactive)	–	24.2 µM (inactive)	15.3 µM (inactive)	4.78 µM (inactive)	4.97 µM (inactive)	16.9 µM (inactive)	6 µM (inactive)	9.82 µM (inactive)	4.88 µM (inactive)	1.76 µM (inactive)
COc1ccc(C2=NN=C3C(c4ccccc4)=Nc4ccccc4N3C2)cc1	3.04 µM (inactive)	3.06 µM (inactive)	27.5 µM (inactive)	–	15.5 µM (inactive)	16.9	28.1 µM (inactive)	40.1 µM (inactive)	10.8 µM (inactive)	12 µM (inactive)	21.3 µM (inactive)	14.8 µM (inactive)	35.7 µM (inactive)	21 µM (inactive)	23.8 µM (inactive)	6.49 µM (inactive)	27.2 µM (inactive)	13.6 µM (inactive)	29.4 µM (inactive)	30.8 µM (inactive)
CC(OC(C)(C)C)C(NC(=O)C(CCCCNC(=O)OC(C)(C)C)NC(=O)C(Cc1c[nH]c2ccccc12)NC(=O)C(N)Cc1ccccc1)C(=O)NC(Cc1ccccc1)C(=O)N[C@@H]1CCC[C@@H]1C(=O)O (some centres undefined) (H-[ξF][ξW][ξK](Boc)[ξT](tBu)[ξF]-X29)	35.5 µM (inactive)	37.1 µM (inactive)	38.6 µM (inactive)	20.7 µM (inactive)	> 100 µM (inactive)	> 10	19.4 µM (inactive)	–	> 100 µM (inactive)	75.5 µM (inactive)	11.1 µM (inactive)	> 100 µM (inactive)	> 100 µM (inactive)	34 µM (inactive)	33.6 µM (inactive)	71.4 µM (inactive)	37.2 µM (inactive)	44.8 µM (inactive)	51.4 µM (inactive)	51.6 µM (inactive)
O=c1[nH]c(=O)n(COCCO)cc1-c1ccccc1	> 100 µM (inactive)	> 100 µM (inactive)	> 100 µM (inactive)	> 100 µM (inactive)	> 100 µM (inactive)	> 100	–	–	> 100 µM (inactive)	> 100 µM (inactive)	> 100 µM (inactive)	> 100 µM (inactive)	> 100 µM (inactive)	> 100 µM (inactive)	> 100 µM (inactive)	> 100 µM (inactive)	> 100 µM (inactive)	> 100 µM (inactive)	> 100 µM (inactive)	> 100 µM (inactive)
Cc1ccccc1NC(=O)Cc1csc(N/N=C2\C(=O)Nc3ccccc32)n1	–	–	29.7 µM (inactive)	17.7 µM (inactive)	50 µM (inactive)	37.2	17.9 µM (inactive)	> 100 µM (inactive)	29.7 µM (inactive)	1 µM (active)	46.8 µM (inactive)	–	48.9 µM (inactive)	38.4 µM (inactive)	71.8 µM (inactive)	21.8 µM (inactive)	1 µM (active)	39.4 µM (inactive)	33.9 µM (inactive)	64.7 µM (inactive)
O=C(NCCCN(CCCCN(CCCNC(=O)c1cc(S(=O)(=O)O)cc(O)c1O)C(=O)c1cc(S(=O)(=O)O)cc(O)c1O)C(=O)c1cc(S(=O)(=O)O)cc(O)c1O)c1cc(S(=O)(=O)O)cc(O)c1O	60.4 µM (inactive)	–	> 100 µM (inactive)	> 100 µM (inactive)	–	> 100	–	> 100 µM (inactive)	> 100 µM (inactive)	> 100 µM (inactive)	> 100 µM (inactive)	–	> 100 µM (inactive)	> 100 µM (inactive)	> 100 µM (inactive)	> 100 µM (inactive)	> 100 µM (inactive)	> 100 µM (inactive)	> 100 µM (inactive)	> 100 µM (inactive)
CCOc1cc2c(cc1O)CC[C@@H]1[C@@H]2CC[C@]2(C)C(OS(=O)OC3CC[C@@H]4[C@H]5CCc6cc(O)c(OCC)cc6[C@@H]5CC[C@@]34C)CC[C@@H]12 (some centres undefined)	0.182 µM (active)	0.313 µM (active)	4.06 µM (inactive)	–	0.592 µM (active)	0.507	0.48 µM (active)	13.7 µM (inactive)	0.441 µM (active)	0.6 µM (active)	0.34 µM (active)	0.887 µM (active)	0.689 µM (active)	1.84 µM (inactive)	2.64 µM (inactive)	9.2 µM (inactive)	0.0601 µM (active)	2.44 µM (inactive)	4.52 µM (inactive)	0.316 µM (active)
O=C(c1cccnc1)N1N=C(c2ccccc2)CC1(O)c1cc(F)c(Cl)cc1Cl (centres undefined)	22.5 µM (inactive)	7.31 µM (inactive)	15.7 µM (inactive)	26.1 µM (inactive)	22 µM (inactive)	26.2	15.4 µM (inactive)	–	23.5 µM (inactive)	25.1 µM (inactive)	13.9 µM (inactive)	16.1 µM (inactive)	27.6 µM (inactive)	27 µM (inactive)	40 µM (inactive)	27 µM (inactive)	26.9 µM (inactive)	30.5 µM (inactive)	10.4 µM (inactive)	21.4 µM (inactive)
Cc1ccc(Nc2nc(O)c3[nH]cnc3n2)cc1CO	14 µM (inactive)	15.7 µM (inactive)	12.1 µM (inactive)	11.6 µM (inactive)	12.8 µM (inactive)	15.6	–	–	15.4 µM (inactive)	17.8 µM (inactive)	16.5 µM (inactive)	–	3 µM (inactive)	17.7 µM (inactive)	12.2 µM (inactive)	17.1 µM (inactive)	15.8 µM (inactive)	20.7 µM (inactive)	14.9 µM (inactive)	15.9 µM (inactive)
